Patent publication US12629415B2, “Vaccine adjuvants” (THE PROVOST, FELLOWS, FOUNDATION SCHOLARS, AND THE OTHER …, priority 2018, dated 2026)
“Also recorded” adds a separate entry of the source.

Key:
PBMCs or CBMCs [1] = assay: IFNα sandwich ELISA on supernatants; format: cell-based, human; details: CBMCs compared with PBMCs; 8 or 24 h
Method: (§1) Poly(I:C) (5 μg/ml) (Invivogen), Poly(dA:dT) (5 μg/ml) (Sigma-Aldrich), 2′3′ cGAMP (10 μg/ml), 5′ triphosphate double stranded RNA (5′ ppp dsRNA) (2.5 μg/ml) and HSV-60 (2 μg/ml) (all from Invivogen) were transfected into PBMCs or CBMCs using TransIT-X2 (Mirus).
(§2) Measurement of cytokines—HEK Blue TNFα/IFNα/β Assays were performed as per the manufacturer's (Invivogen) instructions using Quanti-Blue Detection Reagent. SEAP levels were determined using a spectrophotometer plate reader at 630 nm. IFNα (3425-1H-6, Mabtech) and IP-10 (DY266, R&D Systems) were detected by sandwich ELISA. IFNα ELISA used pan specific IFNα antibodies, which allows detection of IFNα subtypes 1/13, 2, 4, 5, 6, 7, 8, 10, 14, 16 and 17. BioLegend LEGENDplex™ Human Inflammation Panel (13-plex) was carried out as per manufacturer's (Biolegend) instructions to determine levels of IFNγ, IL-10, IL-12p70 and IL-23. A BD LSR Fortessa cell analyser was used to acquire samples and BioLegend LEGENDplex™ software was used for analysis.

bovine PBMCs [2] = assay: Western blot of pro-IL-1β in bovine PBMC lysates; format: cell-based, cattle
Method: Supernatants were collected after 24 hours and IL-1β was detected by ELISA. Human PBMCs were stimulated for 24 hours with polydA:dT (5 μg/ml, 2 μg/ml or 1 μg/ml) or alum (50 μg/ml) alone or with LPS (100 pg/ml) (C & D). Supernatants were collected and IL-1β was detected by ELISA. […] Cell lysates were harvested and pro-IL-1β was detected by western blot. PBMCs were stimulated with media or polydA:dT (1 μg/ml) for 6 hours. Cells were lysed and RNA was harvested and used for analysis by RT-PCR (F). Results are mean+/− SEM for 6 calves tested individually in triplicate. For human analysis, results are mean+/− SEM for 6 humans tested individually in triplicate The PPIA gene was used for normalization of gene expression.

PBMCs or CBMCs [3] = assay: HEK-Blue TNFα assay on supernatants; format: cell-based, human; details: CBMCs compared with PBMCs; 4, 8 or 24 hours
Method: as §1, §2

bovine PBMCs [4] = assay: Real-time PCR of gene expression in bovine PBMCs; format: cell-based, cattle; details: for IFN-α gene expression / IFN-β gene expression: vs unstimulated cells; for ISG-15 expression: after 12 hours (text), 6 hours (FIG. 23 legend)
Method: RNA extraction was conducted using Trizol and an RNeasy Plus Mini Kit (Qiagen Ltd). Tissue culture plates of stimulated cells were spun and supernatants were extracted while the remaining adherent cells were lysed using Trizol. Chloroform (200 μl per 1 ml of Trizol) was then added to the cell lysates and mixed vigorously before being centrifuged at 12000 g for 15 minutes at 4° C. The resulting aqueous layer of RNA was transferred to another tube containing 1 volume of ethanol. The mixture was then added to an RNeasy column and processed according to the manufacturer's instructions (Qiagen Ltd). After rigorous purification, the RNA was isolated and quantified using NanoDrop ND-1000 UV-Vis Spectrophotometer (NanoDrop Technologies Inc.). Finally the samples were stored at −80° C.
RNA was converted to cDNA using a High-Capacity cDNA Reverse transcription Kit (Applied Biosystems). Components needed for reverse transcriptase included RNA, RT 5× buffer, RNase Out, random hexamers, dNTP's and reverse transcriptase. The process was conducted under the following conditions: 25° C. for 10 minutes, 42° C. for 60 minutes, 95° C. for 3 minutes and hold at 4° C. The resulting cDNA was stored at −20° C.
Using, SYBR Green intercalating dye (Applied Biosystems Ltd), qRT-PCR was performed using Applied Biosystems 7500 Fast Real-Time PCR System. Each well on the qRT-PCR plate was comprised of SYBR Green dye, nuclease free H2O, cDNA, forward and reverse primers. Two negative controls were included to ensure no contamination was present. The cycle parameters of the process were: 95° C. for 20 seconds, 40 cycles at 95° C. for 3 seconds, 60° C. for 30 seconds followed by the dissociation steps which were: 95° C. for 15 seconds, 60° C. for 60 seconds, 95° C. for 15 seconds and 60° C. for 15 seconds. The Ct (threshold cycle) values from both the target and reference gene were used to measure the concentration of the target gene in the PCR reaction.

[5] = tested on: mononuclear cells from cord blood, children's blood or adult blood; assay: HEK-Blue IFNα/β and TNFα assays on mononuclear cells of cord blood, children and adults; format: cell-based, human; details: transfection 24 h, 4-24 months, 2-5 years, 6-11 years
Source text: Umbilical cord blood samples were obtained from term births following normal pregnancy, labour and delivery at National Maternity Hospital (NMH), Holles St, Dublin 2. […] Venous blood from infants, children and adolescents of various ages was collected during elective surgical procedures where no indication of infection was present (such as hydrocele repair, umbilical hernia repair, onychocryptosis, orchipexy repair) in Our Lady's Children's Hospital Crumlin (OLCHC), Dublin 12. […] Volumes drawn were age and weight dependent, according to standard, approved guidelines. Ethics approval was obtained from the Ethics Committees of NMH and OLCHC and informed consent was obtained from each subject or their parent/guardian. Adult blood samples were from healthy adults, supplied by the Irish Blood Transfusion Service. • Poly(I:C), Poly(dA:dT) and cGAMP were obtained from Invivogen • Poly (dA:dT) is a repetitive synthetic double-stranded DNA sequence of poly(dA-dT)-poly(dT-dA) http://www.invivopen.com/poly-dadt-naked • Poly (I:C) comprises long strands of inosine poly(I) homopolymer annealed to strands of cytidine poly(C) homopolymer http://www.invivogen.com/polyic-hmw. • cGAMP is cyclic [G(2′,5′)pA(3′,5′)p]; Formula: […], 2Na Methodology
Isolation of mononuclear cells and monocytes—Primary PBMCs or CBMCs were isolated from healthy human blood or cord blood. Monocytes were isolated by negative selection using Monocyte Isolation Kit II (Miltenyi). Monocyte purity was assessed using CD14 staining and was routinely 85-95%. Cells were cultured at 37° C., 5% CO2, 95% air in RPMI-1640, with stable 2.5 mM L-glutamine and 0.5 mM sodium pyruvate with 10% FBS (all from Sigma-Aldrich).
as §1, §2

[6] = polydA:dT 1 μg/ml, 6 hours, listed as PolydA:dT
[7] = polydA:dT 1 μg/ml, 6 hours, listed as poly(dA:dT)
[8] = polydA:dT 1 μg/ml, 6 hours, listed as polydA:dT

poly(deoxyadenylic-thymidylic) acid [Poly(dA:dT)]
IFNα secretion (ELISA) (PBMCs or CBMCs [1]): equivalent or enhanced CNA sensor responses in neonates compared to adults | pro-IL-1β expression (bovine PBMCs [2]; 6 hours, data not shown): enhances pro-IL-1β expression after 6 hours | pro-IL-1β (western blot) (bovine PBMCs [2]; 16 hours, with or without LPS 100 pg/ml): pro-IL-1β was evidently expressed in cells stimulated with polydA:dT in the absence of LPS | TNFα production (PBMCs or CBMCs [3]): significantly more TNFα production from neonatal cells than from adult cells | IFI-16 expression (bovine PBMCs [4]; polydA:dT 1 μg/ml transfected, 12 hours): enhanced in response to polydA:dT; also recorded: regulates IFI-16 expression; also recorded: IFI-16 expression is enhanced by polydA:dT | IL-18 expression (bovine PBMCs [4]; polydA:dT 1 μg/ml, 6 hours): enhanced by polydA:dT; also recorded: increased in response to polydA:dT after 6 hours; also recorded: can drive enhanced IL-18 expression; also recorded: increased the expression of IL-18; also recorded: robust driver of IL-1β secretion and IL-18 expression in cattle | IFN-α gene expression (bovine PBMCs [4]; [6]): increases type I IFN expression by bovine PBMCs; also recorded: enhanced IFN-α, IFN-β and ISG-15 expression by bovine PBMCs | IFN-β gene expression (bovine PBMCs [4]; [6]): increases type I IFN expression by bovine PBMCs; also recorded: enhanced IFN-α, IFN-β and ISG-15 expression by bovine PBMCs | IFN-α gene expression (bovine PBMCs [4]; [7]): enhanced type 1 interferon secretion | IFN-β gene expression (bovine PBMCs [4]; [7]): enhanced type 1 interferon secretion | IFN-α gene expression (bovine PBMCs [4]; [8]): enhanced after 6 hours in comparison to unstimulated cells; also recorded: increases IFN-α and IFN-β expression in bovine PBMCs | IFN-β gene expression (bovine PBMCs [4]; [8]): enhanced after 6 hours in comparison to unstimulated cells; also recorded: increases IFN-α and IFN-β expression in bovine PBMCs | ISG-15 expression (bovine PBMCs [4]; polydA:dT 1 μg/ml, listed as PolydA:dT): enhanced IFN-α, IFN-β and ISG-15 expression by bovine PBMCs | ISG-15 expression (bovine PBMCs [4]; polydA:dT 1 μg/ml, listed as polydA:dT): increased in response polydA:dT after 12 hours; also recorded: ISG-15 expression is increased in bovine PBMCs | TNFα production across age groups [5]: maintenance of cord blood responsiveness to CNA was also observed for both Poly(I:C) and Poly(dA:dT)-induced TNFα production to the age of 24 months | production of type I IFN across age groups [5]: maintained throughout childhood; also recorded: maintained across all age groups
